Numbered stars: 1 amine (or outer) side, 2 acyl side, 3 side chain; on linkers, the order of the positions; unused ones are H or OH. Bridge positions count the residues as written; N and C are the ends. Square brackets hold non-standard residues; d marks the D form. Peptide text beside a SMILES is read from it. I, II: the chains in the order shown. * marks the point of attachment. X1 = O=C(CCN1C(=O)CC([*:1])C1=O)NCCOCCOCCOCCOCCOCCOCCOCCOCCOCCOCCOCCNC(=O)CCN1C(=O)CC([*:2])C1=O; ClAc = O=C(CCl)*

The first assay has as its target T1, human MuSK (Homo sapiens, UniProt O15146).
T1 construct: DNA corresponding to the extracellular portion (amino acids 1-493) was amplified by a PCR method; made in house; host or cells: Expi293F cells
T1 sequence (O15146 24-493): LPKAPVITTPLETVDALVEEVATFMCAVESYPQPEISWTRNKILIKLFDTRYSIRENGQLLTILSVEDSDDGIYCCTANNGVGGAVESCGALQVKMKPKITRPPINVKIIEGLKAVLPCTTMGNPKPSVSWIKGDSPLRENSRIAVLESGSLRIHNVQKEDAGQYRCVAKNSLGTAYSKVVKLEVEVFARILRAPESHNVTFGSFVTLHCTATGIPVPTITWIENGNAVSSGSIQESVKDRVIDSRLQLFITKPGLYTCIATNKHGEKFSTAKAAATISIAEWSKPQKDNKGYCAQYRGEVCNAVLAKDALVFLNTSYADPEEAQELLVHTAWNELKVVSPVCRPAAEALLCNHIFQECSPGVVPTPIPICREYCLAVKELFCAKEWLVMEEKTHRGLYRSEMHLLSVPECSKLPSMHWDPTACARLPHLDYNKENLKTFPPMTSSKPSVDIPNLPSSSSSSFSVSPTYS
Kind of assay: SPR binding activity test to human MuSK (Biacore). The conditions noted are these: 25°C, Fc-tagged human MuSK immobilized, monomer peptides, read-out: Binding activity (KD). How it is done:
The human MuSK protein (extracellular portion) was prepared as a recombinant protein as follows. Using a Flexi clone (FXC31275, Promega Corporation) encoding Human MuSK isoform 1 precursor (NCBI Reference Sequence: NP_005583.1) as a template, DNA corresponding to the extracellular portion (amino acids 1-493) was amplified by a PCR method. XhoI and EcoRI restriction enzyme recognition sequences were added to both the 5' and 3' ends of the amplified DNA sequence, and these were used for insertion into the multiple cloning site of a pCAG-Neo hIgG1-Fc plasmid (Fujifilm Wako Pure Chemical Corporation). This plasmid (pCAG-Neo hMuSK-Fc) enables expression of a chimeric protein of the secretory human MuSK extracellular portion and human IgG1 Fc (hMuSK-Fc; molecular weight of approximately 200 kDa) in animal cells. In practice, ExpiFectamine 293 reagent (Invitrogen) was used to transfect the pCAG-Neo hMuSK-Fc plasmid into Expi293F cells (Invitrogen), and shaking culture was carried out (for 6 days) in an incubator containing 8% CO2. Next, the culture supernatant was collected, centrifuged, and sterilized by filtration through a 0.22 µm filter. The obtained culture supernatant was subjected to Protein G purification, and finally, a purified hMuSK-Fc sample with 99.96% purity (AKTA-FPLC analysis) was obtained.
The strength of binding between MuSK and the cyclic peptides was evaluated by quantitatively measuring the binding kinetics (binding affinity (dissociation constant) KD) of the cyclic peptides to MuSK immobilized on a sensor chip via an Fc tag, using surface plasmon resonance (SPR).
According to the standard immobilization protocol provided by the manufacturer, Fc-tagged human/mouse/rat MuSK was immobilized on a Protein G chip or a Protein A chip (Cytiva). A running buffer for the monomer/dimer peptides contained 0.010 M phosphate, 0.14 M NaCl, 0.0027 M KCl, 0.05% (v/v) Tween 20, and 0.1% (v/v) DMSO. A running buffer for the monomer/dimer U-bodies contained 0.010 M phosphate, 0.14 M NaCl, 0.0027 M KCl, and 0.05% (v/v) Tween 20. A series of concentrations of each monomer peptide, dimer peptide, monomer U-body, and dimer U-body was injected as analytes. A 1:1 binding fitting analysis was applied using Biacore evaluation software, and ka, kd, and KD values were determined.
Fc-tagged human MuSK was prepared according to the procedure described in Example 1(1). In addition, Fc-tagged mouse MuSK was used by expressing a nucleotide sequence encoding the Fc-tagged mouse MuSK extracellular domain (SEQ ID NO: 34). In addition, Fc-tagged rat MuSK was used as a chimeric protein of rat MuSK and an Fc protein, namely, Recombinant Rat MuSK Fc Chimera Protein (catalog number: 9847-MK-050, R&D Systems).
The affinity of the U-bodies and their complexes obtained as described above for MuSK of human, rat, and mouse was evaluated (binding activity test). The test was carried out according to the procedure described in Example 1(3). However, for the complexes of U-bodies, surface plasmon resonance (SPR) analysis was carried out using a Biacore 8K (Cytiva).
On the technique in general: Surface plasmon resonance follows binding to a sensor surface in real time, without labels.
The Kd is a measure of binding affinity in units of concentration. As for `CC(=O)N[C@H](Cc1ccc(O)cc1)C(=O)N[C@@H](CC(C)C)C(=O)N1CCC[C@H]1C(=O)N[C@@H](CCC(=O)O)C(=O)N[C@@H](Cc1ccccc1)C(=O)N[C@@H](CO)C(=O)N[C@@H](Cc1c[nH]c2ccccc12)C(=O)N1CCC[C@H]1C(=O)N[C@@H](CCC(=O)O)C(=O)N[C@@H](CO)C(=O)N[C@@H](Cc1ccccc1)C(=O)N[C@H](C(=O)N[C@@H](CC(C)C)C(=O)N[C@@H](Cc1ccccc1)C(=O)N[C@@H](CC(C)C)C(=O)N[C@@H](CCCNC(=N)N)C(=O)N[C@@H](CCC(N)=O)C(=O)N[C@@H](CCCNC(=N)N)C(=O)N[C@@H](CCC(N)=O)C(=O)N[C@@H](CCCNC(=N)N)C(=O)N[C@@H](CCC(N)=O)C(=O)N[C@@H](CC(C)C)C(=O)NCC(=O)N[C@@H](CCCNC(=N)N)C(=O)NCC(=O)N[C@@H](C)C(=O)N[C@@H](CCC(=O)O)C(N)=O)C(C)C` [MuSK1Ac] (Ac-[dY]LPEFSWPESFVLFLRQRQRQLGRGAE-NH2), the Kd was 1.6 nM.
Consider `CC(C)C[C@H](NC(=O)[C@H](CCC(N)=O)NC(=O)[C@H](CCCNC(=N)N)NC(=O)[C@H](CCC(N)=O)NC(=O)[C@H](CCCNC(=N)N)NC(=O)[C@H](CCC(N)=O)NC(=O)[C@H](CCCNC(=N)N)NC(=O)[C@H](CC(C)C)NC(=O)[C@H](Cc1ccccc1)NC(=O)[C@H](CC(C)C)NC(=O)[C@@H](NC(=O)[C@H](Cc1ccccc1)NC(=O)[C@H](CO)NC(=O)[C@H](CCC(=O)O)NC(=O)[C@@H]1CCCN1C(=O)[C@H](Cc1c[nH]c2ccccc12)NC(=O)[C@H](CO)NC(=O)[C@H](Cc1ccccc1)NC(=O)[C@H](CCC(=O)O)NC(=O)[C@@H]1CCCN1C(=O)[C@H](CC(C)C)NC(=O)[C@@H](Cc1ccc(O)cc1)NC(=O)CCl)C(C)C)C(=O)NCC(=O)N[C@@H](CCCNC(=N)N)C(=O)NCC(=O)N[C@@H](C)C(=O)N[C@@H](CCC(=O)O)C(N)=O` [MuSK1] (ClAc-[dY]LPEFSWPESFVLFLRQRQRQLGRGAE-NH2), for which the Kd amounted to 2.2 nM.

The assay is the same for the next values; noted with them: human MuSK, peptide homodimers.
The term koff denotes the rate constant with which the complex falls apart. Low values mean slow dissociation, high ones fast dissociation. Broadly, the kon is the second-order rate constant of association. A low value points to slower complex formation. As to “I: Ac-C[dY]LPEFSWPESFVLFLRQRQRQLGRGAE-NH2 / II: Ac-C[dY]LPEFSWPESFVLFLRQRQRQLGRGAE-NH2 (linker I:1-II:1 via X1) [MuSK1Ac PEG11 dimer]”, the koff stood at 0.001 s⁻¹ and the kon was determined as 660000 M⁻¹ s⁻¹.
As to “I: Ac-[dY]LPEFSWPESFVLFLRQRQRQLGRGAEC-NH2 / II: Ac-[dY]LPEFSWPESFVLFLRQRQRQLGRGAEC-NH2 (linker I:28-II:28 via X1) [MuSK1Ac Term PEG11 dimer]”, the koff turned out to be 0.0018 s⁻¹ and the kon is 520000 M⁻¹ s⁻¹.

The values are drawn from patent EP4722228A1, “NEW COMPOUND TARGETING MUSK AND USE THEREOF” (The University of Tokyo, priority 2023, dated 2024).
